Reference: ChEMBL document CHEMBL1201862, “PubChem BioAssay data set” (2004)
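Results reflect a 48-hour exposure of cells in 96-well plates to compound at five concentrations. GI50 is the concentration that inhibits growth by half.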 The source made the active and inactive calls. No stated cut-off is given here; in the data, active = GI50 up to about 1.1 µM and inactive = higher.

Legend:
Assay in all cases: inhibition of tumour cell growth, NCI panel, 48 h
SR = test system: SR
SNB-75 = test system: SNB-75
SF-268 = test system: SF-268
SF-539 = test system: SF-539
UACC-62 = test system: UACC-62
HL-60 = test system: HL-60
COLO 205 = test system: COLO 205
OVCAR-5 = test system: OVCAR-5
RPMI-8226 = test system: RPMI-8226
HT-29 = test system: HT-29
TK-10 = test system: TK-10
HCT-116 = test system: HCT-116
K562 = test system: K562
SW-620 = test system: SW-620
786-0 = test system: 786-0
MDA-N = test system: MDA-N
HCC 2998 = test system: HCC 2998

Measured: GI50

COC1C=COC2(C)Oc3c(C)c(O)c4c(O)c(c(C5SCCS5)c(O)c4c3C2=O)NC(=O)/C(C)=C\C=CC(C)C(O)C(C)C(O)C(C)C(OC(C)=O)C1C (stereo not drawn)
inactive: SR 3.15 µM | SNB-75 7.53 µM | SF-268 11 µM | SF-539 8.15 µM | UACC-62 6.18 µM | HL-60 4.02 µM | COLO 205 2.49 µM | OVCAR-5 12.7 µM | RPMI-8226 2.71 µM | HT-29 3.49 µM | TK-10 3.21 µM | HCT-116 5.02 µM | K562 3.66 µM | SW-620 5.42 µM | 786-0 8.87 µM

CN(Cc1cccc2ccsc12)/N=C\c1ccc(Cl)cc1
inactive: SR 18.4 µM | SNB-75 57.1 µM | SF-268 > 100 µM | UACC-62 > 100 µM | MDA-N 39.2 µM | HCC 2998 49.3 µM | COLO 205 74.8 µM | OVCAR-5 > 100 µM | HT-29 26.7 µM | TK-10 > 100 µM | HCT-116 28.6 µM | K562 40.6 µM | SW-620 80.2 µM | 786-0 > 100 µM

Cc1cccc(NC(=O)CC(=O)N2N=C(N3c4ccccc4Sc4ccccc43)CC2c2ccccc2)c1 (stereo not drawn)
inactive: SR > 100 µM | SNB-75 > 100 µM | SF-268 > 100 µM | SF-539 > 100 µM | UACC-62 > 100 µM | HCC 2998 > 100 µM | HL-60 > 100 µM | COLO 205 > 100 µM | OVCAR-5 > 100 µM | RPMI-8226 > 100 µM | HT-29 > 100 µM | TK-10 > 100 µM | HCT-116 > 100 µM | K562 > 100 µM | SW-620 > 100 µM | 786-0 > 100 µM

Cc1cc(OCc2nnc3n2S(=O)(=O)c2ccccc2N3C)ccc1Cl
inactive: SF-268 16.3 µM | SF-539 16.7 µM | UACC-62 17.2 µM | HCC 2998 > 100 µM | HL-60 21 µM | COLO 205 > 100 µM | OVCAR-5 > 100 µM | HT-29 52 µM | TK-10 29.9 µM | HCT-116 39.5 µM | K562 68.7 µM | SW-620 > 100 µM | 786-0 11.8 µM

Oc1cc(O)cc(-c2nc3cc(F)ccc3s2)c1
inactive: SF-268 19.4 µM | SF-539 29 µM | UACC-62 21.1 µM | MDA-N 30.5 µM | COLO 205 21 µM | OVCAR-5 20.8 µM | RPMI-8226 18.5 µM | HT-29 21.4 µM | TK-10 30.3 µM | HCT-116 24.5 µM | SW-620 38.1 µM | 786-0 20.6 µM

COc1cc2c(cc1OC)CCc1cc(OC)c(OC)cc1CC2
inactive: SR > 100 µM | SNB-75 > 100 µM | SF-539 > 100 µM | UACC-62 > 100 µM | MDA-N > 100 µM | HCC 2998 > 100 µM | COLO 205 > 100 µM | OVCAR-5 > 100 µM | HT-29 > 100 µM | TK-10 > 100 µM | HCT-116 > 100 µM | K562 > 100 µM | SW-620 > 100 µM | 786-0 > 100 µM

COc1cc(C)c(S(=O)(=O)N(CCCN)OCCCN)c(C)c1C
inactive: SR 17.6 µM | SNB-75 34.2 µM | SF-268 36.7 µM | UACC-62 48.1 µM | MDA-N 36.9 µM | HCC 2998 16.6 µM | COLO 205 21 µM | OVCAR-5 85.5 µM | RPMI-8226 17.5 µM | HT-29 46.5 µM | TK-10 34 µM | HCT-116 29.6 µM | K562 15.6 µM | SW-620 46.1 µM | 786-0 45.6 µM

CC(C)(C)N/N=C(\C(=O)NC1=C(Cl)C(=O)c2ccccc2C1=O)C1C=CCS1(=O)=O (stereo not drawn)
inactive: SNB-75 11.1 µM | SF-268 21.9 µM | SF-539 23.1 µM | UACC-62 3.3 µM | MDA-N 2.44 µM | HCC 2998 36.1 µM | HL-60 > 100 µM | COLO 205 16.6 µM | OVCAR-5 21.2 µM | RPMI-8226 > 100 µM | HT-29 14.4 µM | TK-10 38.9 µM | HCT-116 15.5 µM | K562 > 100 µM | SW-620 > 100 µM | 786-0 22.4 µM

O=C(O)Cc1ccc([N+](=O)[O-])cc1[N+](=O)[O-]
inactive: SNB-75 > 100 µM | SF-268 > 100 µM | SF-539 > 100 µM | UACC-62 > 100 µM | MDA-N > 100 µM | HL-60 > 100 µM | COLO 205 > 100 µM | OVCAR-5 > 100 µM | RPMI-8226 > 100 µM | HT-29 > 100 µM | TK-10 > 100 µM | HCT-116 > 100 µM | K562 > 100 µM | SW-620 > 100 µM | 786-0 > 100 µM

COc1ccc(-c2oc3c(OC)c(OC)cc(O)c3c(=O)c2OC)cc1
inactive: SNB-75 > 10 µM | SF-268 > 100 µM | SF-539 28.8 µM | UACC-62 > 100 µM | MDA-N > 100 µM | HCC 2998 > 100 µM | HL-60 > 100 µM | COLO 205 > 100 µM | OVCAR-5 > 100 µM | HT-29 > 100 µM | TK-10 > 100 µM | HCT-116 46.5 µM | K562 > 100 µM | SW-620 > 100 µM | 786-0 > 100 µM

COc1cc(C(=O)/C=C/c2ccc(OCC#N)cc2)cc(OC)c1OC
inactive: SR 23.6 µM | SNB-75 > 10 µM | SF-268 33.3 µM | SF-539 17.3 µM | UACC-62 21.2 µM | MDA-N 38 µM | HCC 2998 16.5 µM | COLO 205 20 µM | OVCAR-5 47.5 µM | HT-29 31.7 µM | TK-10 25.1 µM | HCT-116 13.9 µM | K562 24.5 µM | SW-620 18.9 µM | 786-0 22.2 µM

Fc1ccc(C(OCCN2CC3CCC(C2)N3CCCc2ccccc2)c2ccc(F)cc2)cc1
inactive: SNB-75 3.37 µM | SF-268 4.5 µM | SF-539 1.99 µM | UACC-62 9.51 µM | MDA-N 3.43 µM | HCC 2998 2.87 µM | HL-60 3.08 µM | COLO 205 1.41 µM | OVCAR-5 10.6 µM | RPMI-8226 2.15 µM | HT-29 3.29 µM | TK-10 11.7 µM | HCT-116 2.93 µM | K562 2 µM | SW-620 3.54 µM | 786-0 3.62 µM

C=CCn1c(-c2ccc(/N=N/Nc3ccc(-c4n[nH]c(=S)n4CC=C)cc3)cc2)n[nH]c1=S
inactive: SR 2.84 µM | SNB-75 3.93 µM | SF-268 5.06 µM | COLO 205 2.94 µM | OVCAR-5 28 µM | RPMI-8226 1.76 µM | TK-10 11.8 µM | K562 2.12 µM | SW-620 7.13 µM | 786-0 8.41 µM

O=C1NC(=S)N(c2ccccc2)C1=O
inactive: SR > 100 µM | SNB-75 > 100 µM | SF-268 > 100 µM | SF-539 > 100 µM | UACC-62 > 100 µM | HCC 2998 > 100 µM | HL-60 > 100 µM | COLO 205 > 100 µM | OVCAR-5 > 100 µM | RPMI-8226 > 100 µM | HT-29 > 100 µM | TK-10 > 100 µM | HCT-116 > 100 µM | K562 > 100 µM | SW-620 > 100 µM | 786-0 > 100 µM

Cc1nc2ccc(NC3OC(CO)C(O)C(O)C3O)cc2c(=O)n1-c1ccccc1 (stereo not drawn)
inactive: SNB-75 > 100 µM | SF-268 > 100 µM | UACC-62 > 100 µM | MDA-N > 100 µM | HCC 2998 > 100 µM | HL-60 > 100 µM | COLO 205 > 100 µM | OVCAR-5 > 100 µM | RPMI-8226 > 100 µM | HT-29 > 100 µM | TK-10 > 100 µM | HCT-116 > 100 µM | K562 > 100 µM | SW-620 > 100 µM | 786-0 > 100 µM

CCCCCCC(=O)OC[n+]1cccc(-c2c(COC(=O)NC(C)C)c(COC(=O)NC(C)C)c3n2CCC3)c1
inactive: SNB-75 35.4 µM | SF-268 20.4 µM | SF-539 32.1 µM | UACC-62 20 µM | MDA-N > 95.3 µM | HCC 2998 > 100 µM | HL-60 8.57 µM | COLO 205 51.4 µM | OVCAR-5 > 58.9 µM | RPMI-8226 32.1 µM | HT-29 40.6 µM | TK-10 56.2 µM | HCT-116 32.8 µM | K562 31.6 µM | SW-620 28.4 µM | 786-0 21.6 µM

C[N+](C)([O-])Cc1cccc(NC(=O)c2ccc(C(=O)Nc3cccc(C[N+](C)(C)[O-])c3)cc2)c1
inactive: SR > 100 µM | SF-268 > 100 µM | SF-539 > 100 µM | UACC-62 > 100 µM | HCC 2998 > 100 µM | HL-60 > 100 µM | COLO 205 > 100 µM | OVCAR-5 > 100 µM | RPMI-8226 > 100 µM | HT-29 > 100 µM | TK-10 > 100 µM | HCT-116 > 100 µM | K562 > 100 µM | SW-620 > 100 µM | 786-0 > 100 µM

O=c1[nH]nc(-c2ccccc2)n1/N=C/c1ccccc1O
inactive: SR > 100 µM | SF-268 80.2 µM | SF-539 78.2 µM | UACC-62 81.1 µM | MDA-N > 100 µM | HCC 2998 > 100 µM | COLO 205 > 100 µM | OVCAR-5 > 100 µM | RPMI-8226 > 100 µM | HT-29 > 100 µM | TK-10 > 100 µM | HCT-116 33.4 µM | K562 > 100 µM | SW-620 > 100 µM | 786-0 29.2 µM
